The values that follow come from patent publication US20050222173A1, “Triazolopyrimidines” (priority 2002, published 2005).

The structures appear in SMILES notation.

Data set [1] can be described thus: logP determination by HPLC (EEC Directive 79/831 Annex V. A8). The settings on record: for log.P: HPLC, gradient method, acetonitrile/0.1% aqueous phosphoric acid.
The subject of another data set is Podosphaera leucotricha. Briefly: Podosphaera test (apple)/protective. Format: in vivo. The settings on record: protective, evaluation 10 days after inoculation. As for the experimental part: Podosphaera Test (Apple)/Protective [table] […] To test for protective activity, young plants are sprayed with the preparation of active compound at the stated application rate. After the spray coating has dried on, the plants are inoculated with an aqueous spore suspension of the apple mildew pathogen Podosphaera leucotricha. The plants are then placed in a greenhouse at about 23° C. and a relative atmospheric humidity of about 70%.

Setting [2] is: Podosphaera leucotricha, 240 h, application rate 100 g/ha, read-out: Efficacy in %.

The compound `CC1=CCCN(c2c(-c3c(F)cc(F)cc3F)c(Cl)nc3nc(Cl)nn23)C1` [Example 87] showed a log.P in data set [1] of 4.21.
Compound `CC1CCCN(c2c(-c3c(F)cc(F)cc3F)c(Cl)nc3nc(Cl)nn23)C1` (stereo not drawn) [Example 88] showed a log.P in data set [1] of 4.45.
On the same count and under the same terms, as for `Fc1cc(F)c(-c2c(Cl)nc3nc(Cl)nn3c2N2CCCCC2)c(F)c1` [Example 89], the figure is 4.06; as for `CC1CCN(c2c(-c3c(F)cc(F)cc3F)c(Cl)nc3nc(Cl)nn23)CC1` [Example 90], 4.45; as for `CCC1=CCN(c2c(-c3c(F)cc(F)cc3F)c(Cl)nc3nc(Cl)nn23)CC1` [Example 91], 4.63.
For the compound `CC1CCCN(c2c(-c3ccccc3Cl)c(Cl)nc3nc(Cl)nn23)C1` (stereo not drawn) [Example 92], the log.P in data set [1] is given as 4.64.
The compound `CCC1=CCN(c2c(-c3ccccc3Cl)c(Cl)nc3nc(Cl)nn23)CC1` [Example 93] had a log.P in data set [1] of 4.87.
For the compound `CC(C)Nc1c(-c2c(F)cccc2Cl)c(Cl)nc2nc(Cl)nn12` [Example 94], in data set [1], the log.P is listed as 3.42.
Still for that read-out and setting: the same measure for `CC(C)Nc1c(-c2ccc(F)cc2F)c(Cl)nc2nc(Cl)nn12` [Example 95]: 3.31; for `CC(Nc1c(-c2ccc(F)cc2F)c(Cl)nc2nc(Cl)nn12)C(F)(F)F` (stereo not drawn) [Example 96]: 3.52.
`C[C@@H](Nc1c(-c2ccccc2Cl)c(Cl)nc2nc(Cl)nn12)C(F)(F)F` [Example 97] yielded a log.P in data set [1] of 3.63.
Same read-out and setting: the same measure for `C[C@H](Nc1c(-c2c(F)cc(F)cc2F)c(Cl)nc2nc(Br)nn12)C(F)(F)F` [Example 99]: 3.59; for `C[C@H](Nc1c(-c2c(F)cccc2Cl)c(Cl)nc2nc(Cl)nn12)C(F)(F)F` [Example 100]: 3.6; for `CC(C)CNc1c(-c2ccc(F)cc2F)c(Cl)nc2nc(Cl)nn12` [Example 101]: 3.61.
On the same count and under the same terms, the same measure for `CCC(C)Nc1c(-c2ccc(F)cc2F)c(Cl)nc2nc(Cl)nn12` (stereo not drawn) [Example 102]: 3.63; for `Fc1ccc(-c2c(Cl)nc3nc(Cl)nn3c2NC2CCCC2)c(F)c1` [Example 103]: 3.79.
On the same count and under the same terms, the same measure for `COCCNc1c(-c2ccc(F)cc2F)c(Cl)nc2nc(Cl)nn12` [Example 104]: 2.82; for `Fc1ccc(-c2c(Cl)nc3nc(Cl)nn3c2NC2CC2)c(F)c1` [Example 105]: 3.01.
`Fc1ccc(-c2c(Cl)nc3nc(Cl)nn3c2NCC(F)(F)F)c(F)c1` [Example 106] yielded a log.P in data set [1] of 3.19.
In turn, `Fc1ccc(-c2c(Cl)nc3nc(Cl)nn3c2NCC2CC2)c(F)c1` [Example 107] gave a log.P in data set [1] of 3.36.
Compound `C=C(C)CNc1c(-c2ccc(F)cc2F)c(Cl)nc2nc(Cl)nn12` [Example 108] had a log.P in data set [1] of 3.3.
The same measure, in the same setting: the same measure for `CC(C)CC(C)Nc1c(-c2ccc(F)cc2F)c(Cl)nc2nc(Cl)nn12` (stereo not drawn) [Example 109]: 4.31; for `CN(C)CCN(C)c1c(-c2ccc(F)cc2F)c(Cl)nc2nc(Cl)nn12` [Example 110]: 1.51; for `C#CCN(C)c1c(-c2ccc(F)cc2F)c(Cl)nc2nc(Cl)nn12` [Example 111]: 3.21.
Still for that read-out and setting: the same measure for `CN(CC1OCCO1)c1c(-c2ccc(F)cc2F)c(Cl)nc2nc(Cl)nn12` [Example 112]: 3.14; for `CN(Cc1ccco1)c1c(-c2ccc(F)cc2F)c(Cl)nc2nc(Cl)nn12` [Example 113]: 3.69.
`CC(C)CN(C)c1c(-c2ccc(F)cc2F)c(Cl)nc2nc(Cl)nn12` [Example 114] had a log.P in data set [1] of 4.08.
Still for that read-out and setting: as for `COCCN(C)c1c(-c2ccc(F)cc2F)c(Cl)nc2nc(Cl)nn12` [Example 115], the figure is 3.2; as for `C=C(C)CN(C)c1c(-c2ccc(F)cc2F)c(Cl)nc2nc(Cl)nn12` [Example 116], 3.98.
The same measure, in the same setting: the same measure for `CCN(CCN(C)C)c1c(-c2ccc(F)cc2F)c(Cl)nc2nc(Cl)nn12` [Example 117]: 1.65; for `C=C(C)CN(CC)c1c(-c2ccc(F)cc2F)c(Cl)nc2nc(Cl)nn12` [Example 118]: 4.3.
For `C=CCN(CC)c1c(-c2ccc(F)cc2F)c(Cl)nc2nc(Cl)nn12` [Example 119], the log.P in data set [1] turned out to be 3.95.
On the same count and under the same terms, the same measure for `CCN(Cc1ccco1)c1c(-c2ccc(F)cc2F)c(Cl)nc2nc(Cl)nn12` [Example 120]: 3.98; for `CCN(CC1CCCO1)c1c(-c2ccc(F)cc2F)c(Cl)nc2nc(Cl)nn12` (stereo not drawn) [Example 121]: 3.87; for `CCN(CCOC)c1c(-c2ccc(F)cc2F)c(Cl)nc2nc(Cl)nn12` [Example 122]: 3.51.
For `CCOC(=O)CN(CC)c1c(-c2ccc(F)cc2F)c(Cl)nc2nc(Cl)nn12` [Example 123], in data set [1], the log.P is 3.61.
Same read-out and setting: as for `CCCCN(CC)c1c(-c2ccc(F)cc2F)c(Cl)nc2nc(Cl)nn12` [Example 124], the figure is 4.5; as for `CCN(CC)c1c(-c2ccc(F)cc2F)c(Cl)nc2nc(Cl)nn12` [Example 125], 3.74.
The compound `CCCN(CC1CC1)c1c(-c2ccc(F)cc2F)c(Cl)nc2nc(Cl)nn12` [Example 126] showed a log.P in data set [1] of 4.48.
In the case of `CCCN(CC1CCCO1)c1c(-c2ccc(F)cc2F)c(Cl)nc2nc(Cl)nn12` (stereo not drawn) [Example 127], in data set [1], the log.P is 4.29.
The same measure, in the same setting: as for `CCCN(CCOC)c1c(-c2ccc(F)cc2F)c(Cl)nc2nc(Cl)nn12` [Example 128], the figure is 3.9; as for `Fc1cccc(Cl)c1-c1c(Cl)nc2nc(Cl)nn2c1N1CCSCC1` [Example 131], 3.73.
Turning to `Fc1cccc(Cl)c1-c1c(Cl)nc2nc(Cl)nn2c1N1CCOCC1` [Example 132], the log.P in data set [1] is recorded as 3.02.
On the same count and under the same terms, as for `Fc1cccc(Cl)c1-c1c(Cl)nc2nc(Cl)nn2c1N1CCCC1` [Example 134], the figure is 3.54; as for `CCCN(CCOC)c1c(-c2c(F)cccc2Cl)c(Cl)nc2nc(Cl)nn12` [Example 135], 4.06.
On the same count and under the same terms, as for `C=CCN(CC)c1c(-c2c(F)cccc2Cl)c(Cl)nc2nc(Cl)nn12` [Example 137], the figure is 4.16; as for `CC(C)CNc1c(-c2c(F)cccc2Cl)c(Cl)nc2nc(Cl)nn12` [Example 139], 3.74.
In data set [1], `Fc1cccc(Cl)c1-c1c(Cl)nc2nc(Cl)nn2c1NCC1CC1` [Example 143] showed a log.P of 3.49.
Still for that read-out and setting: as for `COCCN(C)c1c(-c2c(F)cccc2Cl)c(Cl)nc2nc(Cl)nn12` [Example 148], the figure is 3.32.
Still for that read-out and setting: the same measure for `CC(C)C(C)Nc1c(-c2ccccc2Cl)c(Cl)nc2nc(Br)nn12` (stereo not drawn) [Example 170]: 4.18; for `CC(C)C(C)Nc1c(-c2c(F)cc(F)cc2F)c(Cl)nc2nc(Cl)nn12` (stereo not drawn) [Example 171]: 4.01.
`CC(C)C(C)Nc1c(-c2c(F)cccc2Cl)c(Cl)nc2nc(Cl)nn12` (stereo not drawn) [Example 172] came in with a log.P in data set [1] of 4.09.
`CC(C)C(C)Nc1c(-c2ccc(F)cc2F)c(Cl)nc2nc(Cl)nn12` (stereo not drawn) [Example 173] registered a log.P in data set [1] of 3.96.
Take `CC(C)C(C)Nc1c(-c2ccccc2Cl)c(Cl)nc2nc(Cl)nn12` (stereo not drawn) [Example 175]: the log.P in data set [1] is 4.16.
For `Nc1nnc(Br)[nH]1` [Example 185, 5-bromo-1,2,4-triazole-3-amine], in data set [1], the chromatographic logP (in general, lipophilicity estimated from chromatographic retention) is 0.37.
For the compound `C[C@@H](Nc1c(-c2ccccc2Cl)c(Cl)nc2nc(Cl)nn12)C(F)(F)F` [drawing 32], the pest or weed control at 100 g/ha in the data set on Podosphaera leucotricha (setting [2]) was 100%.
On the same count and under the same terms, the same measure for `C[C@@H](Nc1c(-c2c(F)cc(F)cc2F)c(Cl)nc2nc(Cl)nn12)C(F)(F)F` [drawing 33]: 100%; for `CC(C)Nc1c(-c2ccccc2Cl)c(Cl)nc2nc(Br)nn12` [drawing 34]: 87%.
Still for that read-out and setting: as for `CCC(C)CNc1c(-c2c(F)cc(F)cc2F)c(Cl)nc2nc(Cl)nn12` (stereo not drawn) [drawing 35], the figure is 100%; as for `CCC(C)CNc1c(-c2c(F)cc(F)cc2F)c(Cl)nc2nc(Br)nn12` (stereo not drawn) [drawing 36], 94%; as for `Clc1nc2nc(Cl)c(-c3ccccc3Cl)c(NCC3CC3)n2n1` [drawing 37], 97%.
As to `C[C@H](Nc1c(-c2c(F)cc(F)cc2F)c(Cl)nc2nc(Br)nn12)C(F)(F)F` [drawing 38], the pest or weed control at 100 g/ha with Podosphaera leucotricha (setting [2]) came to 100%.
Regarding `CC1CCCN(c2c(-c3c(F)cc(F)cc3F)c(Cl)nc3nc(Cl)nn23)C1` (stereo not drawn) [drawing 39], the pest or weed control at 199 g/ha in the data set with Podosphaera leucotricha (Podosphaera leucotricha, 240 h, application rate 199 g/ha, read-out: Efficacy in %) was 94%.
On to `CC(C)CNc1c(-c2ccc(F)cc2F)c(Cl)nc2nc(Cl)nn12` [drawing 40], for which the pest or weed control at 100 g/ha in the data set on Podosphaera leucotricha (setting [2]) was 100%.
The same measure, in the same setting: as for `C[C@H](Nc1c(-c2c(F)cccc2Cl)c(Cl)nc2nc(Cl)nn12)C(F)(F)F` [drawing 41], the figure is 100%; as for `Fc1ccc(-c2c(Cl)nc3nc(Cl)nn3c2N[C@@H](Cl)C(F)(F)F)c(F)c1` [drawing 42], 100%; as for `Fc1cccc(Cl)c1-c1c(Cl)nc2nc(Cl)nn2c1N1CCCC1` [drawing 43], 93%.
For `C=CCN(CC)c1c(-c2c(F)cccc2Cl)c(Cl)nc2nc(Cl)nn12` [drawing 44], the pest or weed control at 100 g/ha with Podosphaera leucotricha (setting [2]) stood at 95%.
For `CC(C)CNc1c(-c2c(F)cccc2Cl)c(Cl)nc2nc(Cl)nn12` [drawing 45], in the data set on Podosphaera leucotricha (setting [2]), the pest or weed control at 100 g/ha worked out at 100%.
Same read-out and setting: as for `Fc1cccc(Cl)c1-c1c(Cl)nc2nc(Cl)nn2c1NCC1CC1` [drawing 46], the figure is 100%; as for `COCCN(C)c1c(-c2c(F)cccc2Cl)c(Cl)nc2nc(Cl)nn12` [drawing 47], 100%.
The compound `C=C(C)CN(C)c1c(-c2c(F)cccc2Cl)c(Cl)nc2nc(Cl)nn12` [drawing 48] had an Efficacy in % in the data set on Podosphaera leucotricha (application rate 100 g/ha) of 100%.
